Active and inactive are the calls of the source.
Key:
Assay type in all cases: functional, cell-based
[1] = species on record: Mus musculus; assay: Cytoprotective activity against PAN-induced toxicity in mouse K5P5 cells assessed as increase in cell size at 2.5 to 25 uM after 48 to 72 hrs by crystal violet staining assay
[2] = species on record: Mus musculus; assay: Cytoprotective activity against PAN-induced toxicity in mouse K5P5 cells assessed as increase in overall cell number at 2.5 to 25 uM after 48 to 72 hrs by crystal violet staining assay
[3] = species on record: Mus musculus; assay: Cytoprotective activity against PAN-induced toxicity in mouse K5P5 cells assessed as increase in cell spreading at 2.5 to 25 uM after 48 to 72 hrs by crystal violet staining assay

Measured: Activity

Cc1[nH]nc(N)c1-c1nc2cc(F)c(S(=O)(=O)NCCO)cc2s1
active: all assays above

Cc1[nH]nc(N)c1-c1nc2cc(F)c(S(N)(=O)=O)cc2s1
active: all assays above

Cc1[nH]nc(N)c1-c1nc2ccc(CN(C)C)cc2s1
active: all assays above

CNS(=O)(=O)c1ccc2nc(-c3c(N)n[nH]c3C)sc2c1
active: all assays above

COc1cc2sc(-c3c(-c4ccco4)n[nH]c3N)nc2cc1F
active: all assays above
